# Experimental data from US20210077382A1, “COMPOSITIONS, DEVICES, AND METHODS FOR THE TREATMENT OF OPIOID-RECEPTOR-MEDIATED CONDITIONS” (Opiant Phamaceuticals, Inc., priority 2016, published 2021).
# Assay: Clinical pharmacokinetic crossover study of IN, IM and oral naltrexone; plasma naltrexone and 6β-naltrexol by LC-MS/MS
# From the text: Study Goals. […] Secondary endpoints included adverse events (AEs), vital signs (heart rate, sitting blood pressure, and respiration rate), electrocardiogram (ECG), clinical laboratory changes and nasal irritation using the nasal irritation scale.
# Study design. […] This was an in-patient open-label, crossover study involving approximately 14 healthy volunteers. […] Subjects stayed in the in-patient facility for 13 days to complete the entire study. Subjects were called 3 to 5 days after discharge to inquire concerning AEs and concomitant medications since discharge. Informed consent was obtained from all subjects, and all were screened for eligibility to participate in the study, including medical history, physical examination, clinical chemistry, coagulation markers, hematology, infectious disease serology, urinalysis, urine drug and alcohol toxicology screen, vital signs and ECG.
# On days of study drug administration, a 12-lead ECG was performed approximately 1 hour prior to dosing and at approximately 1 and 4 hours post-dose. Vital signs were measured pre-dose and about 1 and 4 hours post-dose.
# Study Drugs and Dosing. […] The IN (40 mg/mL) formulations were made by the staff pharmacist at Vince & Associates; the vehicle for the IN formulations was sterile water for injection. The IM formulation (2 mg/mL) was made by the staff pharmacist at Vince & Associates; the vehicle was sterile saline for injection.
# Subjects stayed in the in-patient facility for 13 days to complete the entire study and were discharged 2 days after the fourth dose.
# PK Assessments. […] Plasma was separated from whole blood and stored frozen at […] until assayed.
# Analysis. […] Dose-adjusted values for AUCs and Cmax were calculated. The relative extent of IN and PO absorption (IN and PO versus IM) will be estimated from the dose-corrected AUCs.
smiles,measurement,setting,value
Oc1ccc2c3c1O[C@H]1[C@H](O)CC[C@@]4(O)[C@@H](C2)N(CC2CC2)CC[C@]314 [6β-naltrexol],"λz of 6β-naltrexol, mean (CV %)","naltrexone 4 mg IN plus […] Intravail, N = 12",0.0553 (15.1) 1/h
same,"AUC0-inf of 6β-naltrexol, mean (CV %)","naltrexone 4 mg IN, N = 13",44.0 ng·h/mL
same,"AUC0-inf/Dose of 6β-naltrexol, mean (CV %)","naltrexone 4 mg IN, N = 13",12.2 (23.1) h · ng/mL/mg
same,"AUC0-t of 6β-naltrexol, mean (CV %)","naltrexone 4 mg IN, N = 13",40.3 (23.3) h · ng/mL
same,"AUC0-t/Dose of 6β-naltrexol, mean (CV %)","naltrexone 4 mg IN, N = 13",11.1 (23.3) h · ng/mL/mg
same,"AUCextrap of 6β-naltrexol, mean (CV %)","naltrexone 4 mg IN, N = 13",8.57 (46.1) %
same,"Cmax of 6β-naltrexol, mean (CV %)","naltrexone 4 mg IN, N = 13",3.01 (33.2) ng/mL
same,"Cmax/Dose of 6β-naltrexol, mean (CV %)","naltrexone 4 mg IN, N = 13",0.833 ng/mL/mg
same,"Tmax of 6β-naltrexol, median (minimum, maximum)","naltrexone 4 mg IN, N = 13",2.00 h
same,"t1/2 of 6β-naltrexol, mean (CV %)","naltrexone 4 mg IN, N = 13",13.7 (22.7) h
same,"λz of 6β-naltrexol, mean (CV %)","naltrexone 4 mg IN, N = 13",0.0530 h⁻¹
same,"Cmax/Dose of 6β-naltrexol, mean (CV %)","naltrexone 4 mg IN, N = 13, listed as 6β-Naltrexol",0.833 (33.2) ng/mL/mg
same,Mean concentration of 6β-naltrexol,"naltrexone 4 mg IN, hour 0",0 ng/mL
same,Mean concentration of 6β-naltrexol,"naltrexone 4 mg IN, hour 0.042",0 ng/mL
same,Mean concentration of 6β-naltrexol,"naltrexone 4 mg IN, hour 0.083",0.0321 ng/mL
same,Mean concentration of 6β-naltrexol,"naltrexone 4 mg IN, hour 0.17",0.196 ng/mL
same,Mean concentration of 6β-naltrexol,"naltrexone 4 mg IN, hour 0.25",0.45 ng/mL
same,Mean concentration of 6β-naltrexol,"naltrexone 4 mg IN, hour 0.33",0.693 ng/mL
same,Mean concentration of 6β-naltrexol,"naltrexone 4 mg IN, hour 0.5",1.11 ng/mL
same,Mean concentration of 6β-naltrexol,"naltrexone 4 mg IN, hour 0.75",1.82 ng/mL
same,Mean concentration of 6β-naltrexol,"naltrexone 4 mg IN, hour 1",1.83 ng/mL
same,Mean concentration of 6β-naltrexol,"naltrexone 4 mg IN, hour 2",2.68 ng/mL
same,Mean concentration of 6β-naltrexol,"naltrexone 4 mg IN, hour 3",2.61 ng/mL
same,Mean concentration of 6β-naltrexol,"naltrexone 4 mg IN, hour 4",2.37 ng/mL
same,Mean concentration of 6β-naltrexol,"naltrexone 4 mg IN, hour 6",1.97 ng/mL
same,Mean concentration of 6β-naltrexol,"naltrexone 4 mg IN, hour 8",1.62 ng/mL
same,Mean concentration of 6β-naltrexol,"naltrexone 4 mg IN, hour 12",1.26 ng/mL
same,Mean concentration of 6β-naltrexol,"naltrexone 4 mg IN, hour 16",0.919 ng/mL
same,Mean concentration of 6β-naltrexol,"naltrexone 4 mg IN, hour 24",0.602 ng/mL
same,Mean concentration of 6β-naltrexol,"naltrexone 4 mg IN, hour 30",0.418 ng/mL
same,Mean concentration of 6β-naltrexol,"naltrexone 4 mg IN, hour 36",0.292 ng/mL
same,Mean concentration of 6β-naltrexol,"naltrexone 4 mg IN, hour 48",0.184 ng/mL
same,"AUC0-inf of 6β-naltrexol, mean (CV %)","naltrexone 50 mg Oral, N = 10",675 ng·h/mL
same,"AUC0-inf/Dose of 6β-naltrexol, mean (CV %)","naltrexone 50 mg Oral, N = 10",14.9 (19.9) h · ng/mL/mg
same,"AUC0-t of 6β-naltrexol, mean (CV %)","naltrexone 50 mg Oral, N = 10",614 (19.5) h · ng/mL
same,"AUC0-t/Dose of 6β-naltrexol, mean (CV %)","naltrexone 50 mg Oral, N = 10",13.6 (19.5) h · ng/mL/mg
same,"AUCextrap of 6β-naltrexol, mean (CV %)","naltrexone 50 mg Oral, N = 10",8.79 (57.3) %
same,"Cmax of 6β-naltrexol, mean (CV %)","naltrexone 50 mg Oral, N = 10",90.7 ng/mL
same,"Cmax/Dose of 6β-naltrexol, mean (CV %)","naltrexone 50 mg Oral, N = 10",2.00 ng/mL/mg
same,"Tmax of 6β-naltrexol, median (minimum, maximum)","naltrexone 50 mg Oral, N = 10",0.63 h
same,"t1/2 of 6β-naltrexol, mean (CV %)","naltrexone 50 mg Oral, N = 10",13.9 (15.9) h
same,"λz of 6β-naltrexol, mean (CV %)","naltrexone 50 mg Oral, N = 10",0.0510 (15.8) 1/h
same,"Cmax/Dose of 6β-naltrexol, mean (CV %)","naltrexone 50 mg Oral, N = 10, listed as 6β-Naltrexol",2.00 (30.3) ng/mL/mg
same,Mean concentration of 6β-naltrexol,"naltrexone 50 mg Oral, hour 0",0.0454 ng/mL
same,Mean concentration of 6β-naltrexol,"naltrexone 50 mg Oral, hour 0.042",0.0448 ng/mL
same,Mean concentration of 6β-naltrexol,"naltrexone 50 mg Oral, hour 0.083",1.4 ng/mL
same,Mean concentration of 6β-naltrexol,"naltrexone 50 mg Oral, hour 0.17",14.2 ng/mL
same,Mean concentration of 6β-naltrexol,"naltrexone 50 mg Oral, hour 0.25",31.6 ng/mL
same,Mean concentration of 6β-naltrexol,"naltrexone 50 mg Oral, hour 0.33",45.5 ng/mL
same,Mean concentration of 6β-naltrexol,"naltrexone 50 mg Oral, hour 0.5",68.7 ng/mL
same,Mean concentration of 6β-naltrexol,"naltrexone 50 mg Oral, hour 0.75",60.8 ng/mL
same,Mean concentration of 6β-naltrexol,"naltrexone 50 mg Oral, hour 1",58.6 ng/mL
same,Mean concentration of 6β-naltrexol,"naltrexone 50 mg Oral, hour 2",54 ng/mL
same,Mean concentration of 6β-naltrexol,"naltrexone 50 mg Oral, hour 3",45.8 ng/mL
same,Mean concentration of 6β-naltrexol,"naltrexone 50 mg Oral, hour 4",38 ng/mL
same,Mean concentration of 6β-naltrexol,"naltrexone 50 mg Oral, hour 6",28.5 ng/mL
same,Mean concentration of 6β-naltrexol,"naltrexone 50 mg Oral, hour 8",22.2 ng/mL
same,Mean concentration of 6β-naltrexol,"naltrexone 50 mg Oral, hour 12",15.4 ng/mL
same,Mean concentration of 6β-naltrexol,"naltrexone 50 mg Oral, hour 16",11.4 ng/mL
same,Mean concentration of 6β-naltrexol,"naltrexone 50 mg Oral, hour 24",8.14 ng/mL
same,Mean concentration of 6β-naltrexol,"naltrexone 50 mg Oral, hour 30",5.93 ng/mL
same,Mean concentration of 6β-naltrexol,"naltrexone 50 mg Oral, hour 36",4.35 ng/mL
same,Mean concentration of 6β-naltrexol,"naltrexone 50 mg Oral, hour 48",2.43 ng/mL
same,"Dose-adjusted Cmax of 6β-naltrexol after oral administration, higher than after IN and IM doses",oral vs IN and IM,approximately 2 fold
